Columns and labels:
Type in all cases: functional, cell-based
[1] = system: MCF7; assay: Cytotoxicity against human MCF7 cells after 48 hrs by MTT assay; conditions: MCF7, 48 h
[2] = system: DU-145; assay: Cytotoxicity against human DU145 cells after 48 hrs by MTT assay; conditions: DU-145, 48 h
[3] = system: A549; assay: Cytotoxicity against human A549 cells after 48 hrs by MTT assay; conditions: A549, 48 h
[4] = system: HeLa; assay: Cytotoxicity against human HeLa cells after 48 hrs by MTT assay
[5] = system: U-251; assay: Cytotoxicity against human U251 cells after 48 hrs by MTT assay; conditions: U-251, 48 h
[6] = system: K562; assay: Cytotoxicity against human K562 cells after 48 hrs by MTT assay; conditions: K562, 48 h
[7] = system: BGC-823; assay: Cytotoxicity against human BGC823 cells after 48 hrs by MTT assay; conditions: BGC-823, 48 h
[8] = system: HeLa; assay: Cytotoxicity against human HeLa cells by MTT assay

SMILES	IC50 [1]	IC50 [2]	IC50 [3]	IC50 [4]	IC50 [5]	IC50 [6]	IC50 [7]	IC50 [8]
COc1ccc2nc([C@@H]3c4cc5c(cc4[C@@H](c4cc(OC)c(OC)c(OC)c4)[C@H]4C(=O)OC[C@H]34)OCO5)oc2c1	1200 to 5300 nM	1.2 to 5.3 µM	1.2 to 5.3 µM	1200 to 5300 nM	–	–	–	–
COc1cc([C@@H]2c3cc4c(cc3[C@@H](Nc3cccc(CN5CCCCC5)c3)[C@H]3COC(=O)[C@H]23)OCO4)cc(OC)c1OC	–	–	14.5 µM	–	400 nM	1100 nM	–	–
COc1cc([C@@H]2c3cc4c(cc3[C@@H](Nc3ncccc3F)[C@H]3COC(=O)[C@H]23)OCO4)cc(OC)c1O	1420 nM	–	–	60 nM	–	–	960 nM	–
COc1cc([C@@H]2c3cc4c(cc3[C@@H](NC(=O)C(=O)c3c[nH]c5ccc(C(=O)N6CCCCC6)cc35)[C@H]3COC(=O)[C@H]23)OCO4)cc(OC)c1OC	–	–	–	–	–	–	–	5.57 µM
COc1cc([C@@H]2c3cc4c(cc3[C@@H](NC(=O)C(=O)c3c[nH]c5ccc(C(=O)NC(C)C)cc35)[C@H]3COC(=O)[C@H]23)OCO4)cc(OC)c1OC	–	–	–	–	–	–	–	3.92 µM
CCN(CC)C(=O)c1ccc2[nH]cc(C(=O)C(=O)N[C@@H]3c4cc5c(cc4[C@@H](c4cc(OC)c(OC)c(OC)c4)[C@H]4C(=O)OC[C@@H]43)OCO5)c2c1	–	–	–	–	–	–	–	5.19 µM
COc1cc([C@@H]2c3cc4c(cc3[C@@H](c3nc5ccccc5o3)[C@H]3COC(=O)[C@H]23)OCO4)cc(OC)c1OC	1200 to 5300 nM	1.2 to 5.3 µM	1.2 to 5.3 µM	1200 to 5300 nM	–	–	–	–
COc1cc([C@@H]2c3cc4c(cc3[C@@H](Nc3ncccc3F)[C@H]3COC(=O)[C@H]23)OCO4)cc(OC)c1OC	4490 nM	–	–	200 nM	–	–	2180 nM	–
COc1cc([C@@H]2c3cc4c(cc3[C@@H](c3nc5ccc(Cl)cc5o3)[C@H]3COC(=O)[C@H]23)OCO4)cc(OC)c1OC	1200 to 5300 nM	1.2 to 5.3 µM	1.2 to 5.3 µM	1200 to 5300 nM	–	–	–	–
COc1cc([C@@H]2c3cc4c(cc3[C@@H](c3nc5ccc(OC)c(OC)c5o3)[C@H]3COC(=O)[C@H]23)OCO4)cc(OC)c1OC	2000 nM	1.2 to 5.3 µM	1.8 µM	1200 to 5300 nM	–	–	–	–
COc1cc([C@@H]2c3cc4c(cc3[C@@H](O[C@@H]3O[C@@H]5CO[C@@H](C)O[C@H]5[C@H](O)[C@H]3O)[C@H]3COC(=O)[C@H]23)OCO4)cc(OC)c1O [ETOPOSIDE]	2030 to 5740 nM	2.03 to 5.74 µM	2.03 to 5.74 µM	2030 to 5740 nM	–	–	–	–
